Results published in patent US20090088472A1, “Protective Agent for Neuronal Cell Comprising Amidino Derivative as Active Ingredient” (priority 2006, published 2009).

What was measured:
[1] = system: retinal neuronal cells (RGC in ganglion cell layer, inner plexiform layer) damaged by NMDA; assay: NMDA-induced retinal damage in rats (intravitreal administration, histology after 14 days); type: in vivo; conditions: rat, 14 days after administration
From the text: In order to study the effect of protecting a retinal neuronal cell of a compound represented by the general formula [I] or a salt thereof, the effects of nafamostat and FUT-187, each of which is a compound represented by the general formula [I] or a salt thereof on NMDA-induced retinal damage in rats were studied. As comparative compounds, camostat (N,N-dimethylcarbamoylmethyl-4-(4-guanidinobenzoyloxy)phenylacetate methanesulfonate) represented by the following formula [II] and gabexate (ethyl-4-(6-guanidinohexanoyloxy)benzoate methanesulfonate) represented by the following formula [III] were used.
Each of NMDA, nafamostat and FUT-187 was dissolved in distilled water, whereby an NMDA solution, a nafamostat solution, and an FUT-187 aqueous solution were obtained. Then, the solutions were appropriately mixed, whereby an aqueous solution of 4 mM NMDA and 2 mM nafamostat (hereinafter referred to as “Test liquid 1”) and an aqueous solution of 4 mM NMDA and 2 mM FUT-187 (hereinafter referred to as “Test liquid 2”) were obtained. In the same manner, an aqueous solution of 4 mM NMDA and 20 mM camostat (hereinafter referred to as “Comparative test liquid 1”) and an aqueous solution of 4 mM NMDA and 20 mM gabexate (hereinafter referred to as “Comparative test liquid 2”) were obtained. Further, by mixing the NMDA solution and distilled water, a 4 mM NMDA liquid (hereinafter referred to as “NMDA liquid”) was obtained.
Mydriasis was induced in a rat with a 0.5% (w/v) tropicamide-0.5% phenylephrine hydrochloride ophthalmic solution, and then, anesthesia was induced with 3% halothane, and then, anesthesia was maintained with 1% halothane (halothane was vaporized with 0.5 L oxygen/min and 1.5 L dinitrogen monoxide/min). Then, a 0.4% (w/v) oxybuprocaine hydrochloride ophthalmic solution was instilled to the rat to anesthetize the surface of the eyeball, and by using a 32-gauge Hamilton microsyringe, 5 μl of Test liquid 1 was intravitreally administered under an operating microscope. Further, the same procedure as above was carried out by sequentially altering Test liquid 1 into distilled water, NMDA liquid, Test liquid 2, Comparative test liquid 1 and Comparative test liquid 2, respectively. Then, 14 days after the administration, the eyeball was taken out and fixed in 2.5% glutaraldehyde-10% neutral buffered formalin for 1 day. Thereafter, the cornea and lens were excised, and the 2.5% glutaraldehyde-10% neutral buffered formalin was changed to 10% neutral buffered formalin. At a later date, dehydration was carried out, followed by paraffin embedding and slicing and pathological tissue sections (with a thickness of 3 μm) stained with hematoxylin-eosin (HE) were prepared. From 8 sections which had been prepared by slicing the specimen with an interval of 15 μm per one eye such that the optic papilla was contained, 3 sections were optionally selected. With regard to the thus selected sections, a photograph of the retina in the range of from 1 to 1.5 mm on the left or right side from the optic papilla was taken, and the number of cells in the ganglion cell layer (GCL) in the retina (RGC number) and the thickness of the inner plexiform layer (IPL) were measured. From these measured values and in accordance with Equation 1 and Equation 2, a ganglion cell death inhibition rate and an IPL thinning inhibition rate were calculated. […]

trypsin = conditions: stated as known; cited from earlier work
[2] = 100 nmol/eye co-administered with 4 mM NMDA (5 μl)
[3] = 10 nmol/eye co-administered with 4 mM NMDA (5 μl)
[4] = 10 nmol/eye co-administered with 4 mM NMDA (5 μl), listed as FUT-187
[5] = 10 nmol/eye co-administered with 4 mM NMDA (5 μl), listed as nafamostat

Structure (SMILES)	Ganglion cell death inhibition rate [1, 2] [%]	IPL thinning inhibition rate [1, 2] [%]	trypsin inhibitory activity (trypsin)	Ganglion cell death inhibition rate [1, 3] [%]	IPL thinning inhibition rate [1, 3] [%]	Ganglion cell death inhibition rate [1, 4]	IPL thinning inhibition rate [1, 4]	Ganglion cell death inhibition rate [1, 5]	IPL thinning inhibition rate [1, 5]
CCOC(=O)c1ccc(OC(=O)CCCCCNC(=N)N)cc1 [Comparative test liquid 2, ethyl-4-(6-guanidinohexanoyloxy)benzoate methanesulfonate]	17.8	2.4	have a trypsin inhibitory activity	–	–	–	–	–	–
N=C(N)c1ccc2cc(OC(=O)c3ccc(NC4=NCCN4)cc3)ccc2c1 [Test liquid 2, 6′-amidino-2′-naphthyl-(4-(4,5-dihydro-1H-2-imidazolyl)amino)benzoate dimethanesulfonate]	–	–	have the same activity	136.8	63.1	high	high	–	–
N=C(N)Nc1ccc(C(=O)Oc2ccc3cc(C(=N)N)ccc3c2)cc1 [Test liquid 1, 6′-amidino-2′-naphthyl-4-guanidinobenzoate dimethanesulfonate]	–	–	have the same activity	78.8	54.8	–	–	high	high
